# Laboratory results published in publication PMC11904221 (EMBO Molecular Medicine, 2025).
# Like-named read-outs stand apart in the source and are kept apart here. Where a SMILES comes first, the peptide text is derived from it.
# Assays:
# in vivo = conditions: BALB/c, mouse, ip
# Experimental: Pharmacological profile of APLN-DM peptide
# Maximal Tolerated Dose (MTD) study of APLN -DM in mice
# Six groups comprising six Balb/C mice per group (3 males and 3 females) were assigned to the study. In each gender, one control group (1 Male (M)/1 female (F)) received the reference solution (vehicle) and 5 […]
# mg/kg (4M/4F), 2000 mg/kg (5M/5F) and 1500 mg/kg (6M/6F). APLN-DM peptide was administrated via intra-peritoneal (IP) single injection at day 1 followed by observation during 14 days. During the study, mortality, morbidity, general clinical signs and bod y weight were recorded. In the end of the study pathology and organ necropsy examination were performed. Thereby, APLN-DM peptide and vehicle were administered to mice according to Table-1 and their effects were analyzed according to Table-2.
# Each test item dose was administrated to 3 female and 3 male mice. The administration was performed IP at a dose volume of 10 ml/kg. Dosing was performed according to Figure-1 and each increase in dose pending on the outcome of the previous dose (results of clinical signs). The lag time between the increasing doses was approximately 48h.
# No. (n=) Mouse# Treatment Dose Level administration administratio […]
# Table-1. Study design -1. […], […]
# Study Day* Procedure Body Weight Clinical Mortality & Organ
# Sign Morbidity observation
# 2-14 - Twice weekly Once -
# 15 Termination √ √ Gross pathology
# Figure 1 - Decisional tree for successive dosing for MTD determination […]
# At study termination, body weight (Figure 2 and Figure 3) and gross pathology abnormalities were analyzed in all animals. Main pathological finding were blood clots in intestine and chest cavity. Treatment-related clinical adverse side effects (purple tail, lethargy, decreased motor activity) were observed also in groups treated either with 200, 500, 1000 and 1500 mg/kg. The tail recovered a normal color after 1 hour in all dose groups. […]
# abnormalities were detected in all male and female animals from these groups at the scheduled termination […]
# [1] = Time-dependent stability in water and in plasma on storage, LC-MS; format: physicochemical; conditions: read-out: % of area at T=0
# Experimental: The standard deviations were below the acceptable values (<15%) showing that the accuracy is correct and compliant with standard quantification protocols. […]
# the linearity of the method. […]
# for concentrations below 0.5 µM.
# The second step of the study consisted to analyse the stability of the peptide in order to evaluate the feasibility of the quantification of APLN-DM in the samples obtained in vivo.
# Quantification in the plasma after protein precipitation
# Before the injection for LC-MS analysis, the plasmas had to be processed for elimination of major proteins, which can disturb the analysis. Proteins were precipitated by an organic solvent. […]
# The second method was adapted from the protocol described by O. Chertov et al. (Proteomics 2004, 4, 1195- […]
# 1203). […] 7 µl of this solution were […]
# added to 70 µl plasma or 70 µl water (control).
# 10 µl of each sample were mixed to 20 µl water, vortexed, mixed to 45 µl d’acetonitrile + 0.1% trifluoroacetic acid, sonicated, vortexed, centrifuged for 15 minutes. The supernatant was evaporated and the pellet was re-suspended in 30 µl water. The 2 samples (peptide in plasma or in water) were injected in LC-MS according to the conditions previously established.
# With this method, the recovery of APLN-DM in the plasma after protein precipitation was sufficient.
# The coefficient of variation was acceptable. This method was used for the stability study in the plasma.
# 7 µl were added to 3 samples […]
# of 70 µl plasma or 70 µl water.
# Six solutions were obtained:
# -W RT : solution in water stored at room temperature
# -W 4°C : solution in water stored at 4°C
# -W -18°C : solution in water stored at -18°C
# -P RT : solution in plasma stored at room temperature
# -P 4°C : solution in plasma stored at 4°C
# -P -18°C : solution in plasma stored at -18°C. […]
# processed for protein extraction (according to the method previously described), and then injected in […]
# LC-MS for APLN-DM quantification. For […]
# each sample, % were calculated according to the area obtained at T=0 which correspo nd to 100%.
# in vitro [2] = experiment: in vitro
# [3] = pH 7.4, aqueous buffer
# in vitro [4] = experiment: in vitro; remark: listed apart in the source
# [5] = for microsomal CLint: liver microsomes
# [6] = mouse
smiles,measurement,setting,value
CSCC[C@H](NC(=O)[C@@H]1CCCN1C(=O)CNC(=O)[C@H](CCCCN)NC(=O)[C@H](Cc1c[nH]cn1)NC(=O)[C@H](CO)NC(=O)[C@H](CC(C)C)NC(=O)[C@H](CCCNC(=N)N)NC(=O)[C@@H]1CCCN1C(=O)[C@H](CCCNC(=N)N)NC(=O)[C@H](CCC(N)=O)NC(=O)[C@H](CO)NC(=O)[C@H](CO)NC(=O)[C@H](Cc1ccccc1)NC(=O)[C@H](CCCCN)NC(=O)[C@H](CO)NC(=O)[C@H](CO)NC(=O)CNC(=O)CNC(=O)[C@H](CCC(N)=O)NC(=O)[C@H](Cc1c[nH]c2ccccc12)NC(=O)[C@@H]1CCCN1C(=O)CNC(=O)[C@@H]1CCCN1C(=O)CNC(=O)[C@H](CC(N)=O)NC(=O)[C@H](CCCNC(=N)N)NC(=O)[C@H](CO)NC(=O)CNC(=O)[C@H](CCCNC(=N)N)NC(=O)[C@@H]1CCCN1C(=O)[C@H](CCC(N)=O)NC(=O)[C@@H](NC(=O)[C@@H](N)CC(C)C)C(C)C)C(=O)N1CCC[C@H]1C(=O)N[C@@H](Cc1ccccc1)C(=O)O [APLN-DM] (H-LVQPRGSRNGPGPWQGGSSKFSSQRPRLSHKGPMPF-OH),MTD at 336 h,in vivo; female,1000 mg/kg
same,MTD at 336 h,in vivo; male,1500 mg/kg
same,remaining at 2 h,[1]; P 4°C,51%
same,remaining at 168 h,[1]; P 4°C,6%
same,remaining at 1 h,"[1]; P 4°C: in plasma, 4°C",66%
same,remaining at 2 h,[1]; P -18°C,66%
same,remaining at 5 h,[1]; P -18°C,114%
same,remaining at 24 h,[1]; P -18°C,86%
same,remaining at 48 h,[1]; P -18°C,97%
same,remaining at 72 h,[1]; P -18°C,89%
same,remaining at 168 h,[1]; P -18°C,12%
same,remaining at 1 h,"[1]; P -18°C: in plasma, -18°C",75%
same,remaining at 2 h,[1]; P RT,17%
same,remaining at 5 h,[1]; P RT,13%
same,remaining at 24 h,[1]; P RT,8%
same,remaining at 48 h,[1]; P RT,14%
same,remaining at 72 h,[1]; P RT,7%
same,remaining at 168 h,[1]; P RT,22%
same,remaining at 1 h,"[1]; P RT: in plasma, room temperature",21%
same,"% Protein bound, 1st",in vitro [2],26.1%
same,"% Protein bound, 2nd",in vitro [2],26.9%
same,"% Recovery, Mean",in vitro [2],93%
same,"fraction unbound at 4 h, 1e-05 M","in vitro [2]; CD-1, mouse, plasma",0.74
same,solubility thermodynamic,[3],187 µM
same,Half-life in human plasma,in vitro [4],> 18 h
same,"Half-life, 1st",in vitro [4]; human,21.173 h
same,"Half-life, 2nd",in vitro [4]; human,16.21 h
same,half-life at 1 µM,"in vitro [4]; human, plasma",18.7 h
same,remaining at 0.5 h,"in vitro [4]; human, plasma",99%
same,remaining at 1 h,"in vitro [4]; human, plasma",98%
same,remaining at 2 h,"in vitro [4]; human, plasma",93%
same,clearance category,[5],high
same,"Half-life, 1st",[5]; human,1.24 h
same,"Half-life, 2nd",[5]; human,1.14 h
same,"Half-life, Mean",[5]; human,> 1 h
same,microsomal CLint,[5]; human,< 116 µL/min/mg
same,microsomal CLint,[5],< 116 µL/min/mg
same,"Half-life, 1st",[6],0.645 h
same,"Half-life, 2nd",[6],1.867 h
same,half-life,[6]; liver microsomes,> 1 h
same,microsomal CLint,[6]; liver microsomes,< 116 µL/min/mg
